Measurements reported in patent US6589951B1, “Phthalazine derivatives as phosphodiesterase 4 inhibitors” (Zambon Group S.p.A., priority 1997, dated 2003).

Tests used:
PDE 5 = molecular target: T1, PDE 5 (Homo sapiens, UniProt O76074); assay: PDE 5 enzyme inhibition test (SPA); format: biochemical; details: at 10^-6 M; enzyme from human platelets
T1 construct: Human platelets were prepared from platelet rich plasma (PRP); from tissue; host or cells: human platelets (platelet rich plasma, L. Sacco Hospital, Milan)
Method: (§1) Human platelets were prepared from platelet rich plasma (PRP) obtained from the Hematological Dept. of the “L.Sacco” Hospital of Milan. The PRP was centrifuged at 2,200 rpm for 15 minutes at 4° C. and the pellet was suspended in lysis solution (15 ml; 155 mM NH4Cl, 10 mM KHCO3 and 0.1 mM Na2EDTA, pH=7.4) and incubated for 10 minutes on ice-bath to remove the erythrocyte contamination. After a centrifuging at 1,400 rpm for 10 minutes at 4° C., platelets were suspended in 10 ml of […], 5 mM KCl, 1 mM MgSO4, 10 mM glucose, 10 mM HEPES and 0.05 U/ml of hirudin (pH=7.4), and stored at −20° C. until homogenization and chromatography.
(§2) Before the chromatographic step, platelets were thawed and 50 ml of 20 mM TRIS (pH=6.5) containing 5 mM βmercapto-ethanol, 2 mM EDTA, 50mM sodium acetate and 50 μM PMSF (homogenization buffer) were added. The platelet suspension was then homogenized by a Polytron homogenizer (Polytron PT 1200) for 20 seconds. The homogenate was centrifuged at 14,500 rpm for 20 minutes at 4° C., and the supernatant was applied to a UNO Q12 column (Bio-Rad) pre-equilibrated with the PMSF. A flow rate of 4.5 ml/min was used throughout the ion exchange chromatography procedure. The column was washed with PMSF (180 ml) and PDE 3 and PDE 5 were eluted by sodium acetate linear gradient from 0.05M to 1M. The fractions containing enzymatic activity were joined, dialysed against water and concentrated 10 times by ultrafiltration. The resulting solution was stored at −20° C. in the presence of ethylenglycole (30%) v/v) until use.
(§3) The enzyme activity was assessed with an Amersham kit based on the SPA technique (Scintillation Proximity Assay). The enzymatic reaction was effected in a total volume of 100 μl of TRIS/HCl buffer (50 mM, pH7.5), MgCl2 (8.3 mM), EGTA (1.7 mM), cAMP (for PDE 3 assay) or cGMP (for PDE 5 assay) (1 μM), [^3H]cAMP or [^3H]cGMP (10 μl), and 10 μl of the compounds of the invention. The reaction was started by adding the enzyme (10 μl) incubated for 40 minutes at 30° C. and stopped by adding 50 μl of SPA beads. The radioactivity due to the particles was measured in β-emitting counter. The results are expressed as percent activity versus the control present in each test.

PDE 4 = PDE 4 enzyme inhibition test (SPA); format: biochemical, human; details: for activity on PDE 4 (in words): summary statement in description
Method: The polymorphonucleate leukocytes (PMNs) were isolated from peripheral blood of healthy volunteers according to what described by Boyum A, Scand. J. Immunol., 1976, 5° suppl., 9). Shortly, the isolation of the PMNs was effected by Ficoll-Paque gradient centrifugation followed by sedimentation on dextrane and the erythrocyte contamination was eliminated by hypotonic lysis.
The human PMNs were resuspended in TRIS/HCl buffer (10 mM pH 7.8) containing MgCl2 (5mM), EGTA (4 mM), mercaptoethanol (5 mM), TRITON-X100 (1%), pepstatin A (1 μM), PMSF (100 μM) and leupeptin (1 μM), and homogenised by Polytron. The homogenate was centrifuged at 25,000×g for 30 minutes at 4° C. and the surnatant was used for the PDE 4 enzyme purification by ion exchange chromatography using the FPLC technique according to what described by Schudt C. et al., Naunyn-Schmidberg's Arch. Pharmacol., 1991, 334, 682. The surnatant was seeded on a UNO Q12 column (Bio-Rad) and the enzyme was eluted by sodium acetate gradient from 50mM to 1M. The fractions containing enzymatic activity were joined, dialysed against water and concentrated. The resulting PDE 4 enzyme was stored at −20° C. in the presence of ethylenglycole (30%) v/v) until use.
The enzyme activity was assessed with an Amersham kit based on the SPA technique (Scintillation Proximity Assay). The enzymatic reaction was effected in a total volume of 100 μl of TRIS/HCl buffer (50 mM, pH7.5), MgCl2 (8.3mM), EGTA (1.7 mM), cAMP (1μM) and [^3H]cAMP (˜100.000 dpm). The compounds of the invention and the reference ones were added at the wanted concentrations. As reference compounds 6,7 dimethoxy-4-(pyridin-4-ylmethyl)-2H-phthalazin-1 on (reference 1) and 6,7-dimethoxy-4-(piperidin-4-ylmethyl)-2H-phthalazin-1-one (reference 2) embraced by the general formula of the patent application EP-0 722 936 (in the name of Eisai) were used. The reaction was started by adding the enzyme (15 μg protein/ml) in 40 minutes at 30° C. and stopped with 50 μl of SPA particles suspension. The radioactivity of the particles was measured in β-emitting counter. The IC50 values were computed over 9 equidistant concentrations in logarithmic scale using a 4-parameters logistic function by a software.

PDE 3 = molecular target: T2, PDE 3 (Homo sapiens, UniProt Q14432); assay: PDE 3 enzyme inhibition test (SPA); format: biochemical; details: at 10^-6 M; enzyme from human platelets
T2 construct: Human platelets were prepared from platelet rich plasma (PRP); from tissue; host or cells: human platelets (platelet rich plasma, L. Sacco Hospital, Milan)
T2 sequence (Q14432 whole entry): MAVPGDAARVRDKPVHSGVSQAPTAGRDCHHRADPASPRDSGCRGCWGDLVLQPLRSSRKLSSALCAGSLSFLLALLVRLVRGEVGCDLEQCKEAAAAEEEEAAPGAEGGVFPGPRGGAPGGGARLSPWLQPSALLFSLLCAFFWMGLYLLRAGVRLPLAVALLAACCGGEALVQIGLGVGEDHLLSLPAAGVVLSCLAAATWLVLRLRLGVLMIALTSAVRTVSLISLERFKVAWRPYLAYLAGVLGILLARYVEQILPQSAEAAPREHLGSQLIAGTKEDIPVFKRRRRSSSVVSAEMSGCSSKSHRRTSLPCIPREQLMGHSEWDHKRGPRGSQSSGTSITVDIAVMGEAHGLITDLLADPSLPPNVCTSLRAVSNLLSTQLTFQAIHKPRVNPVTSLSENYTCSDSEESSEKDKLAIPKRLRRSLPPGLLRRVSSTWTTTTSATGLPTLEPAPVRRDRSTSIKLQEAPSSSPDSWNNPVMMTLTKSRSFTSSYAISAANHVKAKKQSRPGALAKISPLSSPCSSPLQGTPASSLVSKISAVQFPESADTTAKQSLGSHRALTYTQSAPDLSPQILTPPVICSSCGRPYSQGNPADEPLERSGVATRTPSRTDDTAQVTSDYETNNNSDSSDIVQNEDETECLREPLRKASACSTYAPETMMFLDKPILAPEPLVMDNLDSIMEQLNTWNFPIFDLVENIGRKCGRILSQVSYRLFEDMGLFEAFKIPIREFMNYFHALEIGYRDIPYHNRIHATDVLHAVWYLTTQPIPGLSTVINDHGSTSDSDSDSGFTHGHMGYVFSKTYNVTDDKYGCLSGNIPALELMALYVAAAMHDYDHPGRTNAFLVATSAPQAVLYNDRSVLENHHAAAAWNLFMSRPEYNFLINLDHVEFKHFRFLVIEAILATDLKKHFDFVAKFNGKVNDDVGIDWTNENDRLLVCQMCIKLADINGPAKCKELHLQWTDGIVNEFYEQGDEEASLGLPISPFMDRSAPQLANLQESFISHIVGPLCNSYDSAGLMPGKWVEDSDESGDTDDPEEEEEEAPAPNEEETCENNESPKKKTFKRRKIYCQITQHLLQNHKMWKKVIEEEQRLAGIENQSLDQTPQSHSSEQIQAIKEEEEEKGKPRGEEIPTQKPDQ
Method: as §1, §2, §3

TNFα = TNFα synthesis inhibition in LPS-stimulated human monocytes (ELISA); format: cell-based; details: Monocyte, LPS 1 ng/ml, 16 hours
Method: The monocytes were isolated from peripheral blood of healthy volunteers according the procedure of Schreek L., J. Natl. Cancer Inst., 1964, 32, 507. The monocytes and lymphocytes population was isolated by Ficoll gradient centrifugation, and the cells diluted at a density of 2.5×10^6 cells/ml in RPMI1640 incubation containing 1% inactivated bovine fetal serum, penicillin (100 U/ml) and streptomycin (100 U/ml) were placed in 24-wells plates (1 ml/well) and left to adhere for 1 hour at 37° C. with 5% CO2. At the end of the incubation the lymphocytes not adhering were removed by aspiration and the monocytes adhered to the plate were used in the next step.
The TNFα synthesis from human monocytes was measured according to the method of Barnette M. et al., Biochemical Pharmacology, 1996, 51, 949. The monocles were incubated for 1 hour with 1 ml of RPMI1640 incubation medium (1% inactivated bovine serum, 100 U/ml penicillin and streptomycin) containing different concentrations of the products according to the present invention or the carrier only for the controls. The TNFα synthesis from monocytes was induced by adding 1ng/ml of LPS (lipopolysaccharide of E. Coli) and after 16 hours of incubation at 37° C., 5% CO2, the incubation medium was removed, and the surnatant stored at −80° C. until the measurement. The TNFα levels were determined by ELISA test with an Amersham kit. The results are set forth in Table 2 as IC50 measured with the same calculation of example 67.

[1] = at 10^-6 M, enzyme from human PMNs
[2] = at 10^-8 M, enzyme from human PMNs
[3] = enzyme from human PMNs, 9 concentrations, 4-parameter logistic
[4] = at 10^-5 M, enzyme from human PMNs

Row | inhibition at 1 µM (PDE 5) [%] | PDE 4 % inhibition (PDE 4; [1]) [%] | PDE 4 % inhibition (PDE 4; [2]) [%] | IC50 (PDE 4; [3]) [nM] | inhibition at 1 µM (PDE 3) [%] | IC50 (TNFα) [nM] | PDE 4 % inhibition (PDE 4; [4]) [%] | IC50 (PDE 4; reference compounds) [nM] | activity on PDE 4 (in words) (PDE 4) | SMILES
1 | 20 | 80 | 33 | 74.9 ± 8 | 20 | 259 ± 86 | 93 | – | – | CCc1nnc(Cc2c(Cl)cncc2Cl)c2cc(OC3CCCC3)c(OC)cc12 [Compound 10, 7-Cyclopentyloxy-1-(3,5-dichloro-pyridin-4-ylmethyl)-4-ethyl-6-methoxy-phthalazine]
2 | 2 | – | – | 153 ± 85 | 4 | – | – | – | – | COc1ccc2c(Cc3c(Cl)cncc3Cl)nncc2c1OC1CCOC1 (stereo not drawn) [Compound 13]
3 | – | – | – | 298 ± 37 | – | 389 ± 47 | – | – | – | COc1ccc2c(Cc3c(Cl)cncc3Cl)n[n+]([O-])cc2c1OC1CCOC1 (stereo not drawn) [Compound 14]
4 | 0 | – | – | 282 ± 36 | 11 | – | – | – | – | FC(F)Oc1ccc2c(Cc3c(Cl)cncc3Cl)nncc2c1OC1CCOC1 (stereo not drawn) [Compound 15, 1-(3,5-Dichloro-pyridin-4-ylmethyl)-6-difluoromethoxy-5-(tetrahydro-furan-3-yloxy)-phthalazine]
5 | 8 | – | – | 206 ± 124 | – | – | – | – | – | COc1ccc2c(Cc3c(Cl)c[n+]([O-])cc3Cl)n[n+]([O-])cc2c1OC1CCOC1 (stereo not drawn) [Compound 19]
6 | – | – | – | – | – | – | – | > 100000 | did not show to be active | COc1cc2c(Cc3ccncc3)n[nH]c(=O)c2cc1OC [Reference 1, 6,7-dimethoxy-4-(pyridin-4-yl-methyl)-2H-phthalazin-1-one, reference compound]
7 | – | – | – | – | – | – | – | > 100000 | did not show to be active | COc1cc2c(CC3CCNCC3)n[nH]c(=O)c2cc1OC [Reference 2, 6,7-dimethoxy-4-(piperidin-4yl-methyl)-2H-phthalazin-1-one, reference compound]

The remaining lines, values behind:

Row | SMILES | inhibition at 1 µM (PDE 5) [%] | PDE 4 % inhibition (PDE 4; [1]) [%] | PDE 4 % inhibition (PDE 4; [2]) [%] | IC50 (PDE 4; [3]) [nM] | inhibition at 1 µM (PDE 3) [%] | IC50 (TNFα) [nM] | PDE 4 % inhibition (PDE 4; [4]) [%] | IC50 (PDE 4; reference compounds) [nM] | activity on PDE 4 (in words) (PDE 4)
8 | COc1ccc2c(Cc3c(Cl)cncc3Cl)nncc2c1OC1CCCC1 [Compound 1, 5-Cyclopentyloxy-1-(3,5-dichloropyridin-4-ylmethyl)-6-methoxy-phthalazine] | 20 | 84 | 19 | 53.1 ± 10 | 0 | 254 ± 84 | – | – | –
9 | COc1ccc2c(Cc3c(Cl)cncc3Cl)n[n+]([O-])cc2c1OC1CCCC1 [Compound 2, 5-Cyclopentyloxy-1-(3,5-dichloropyridin-4-ylmethyl)-6-methoxy-phthalazin-3-oxide] | 4 | 94 | 25 | 42.4 ± 5 | 20 | 139 ± 55 | 97 | – | –
10 | FC(F)Oc1ccc2c(Cc3c(Cl)cncc3Cl)nncc2c1OC1CCCC1 [Compound 3, 5-Cyclopentyloxy-1-(3,5-dichloropyridin-4-yl-methyl)-6-difluoromethoxy-phthalazine] | 14 | 100 | 34 | 38.9 ± 7 | 5 | 167 ± 79 | – | – | –
11 | COc1ccc2c(Nc3c(Cl)cncc3Cl)nncc2c1OC1CCCC1 [Compound 4, 5-Cyclopentyloxy-1-(3,5-dichloropyridin-4-ylamino)-6-methoxy-phthalazine] | 19 | 73 | – | 58.9 ± 5 | 8 | 187 ± 35 | – | – | –
12 | COc1ccc2c(Cc3c(Cl)cncc3Cl)nncc2c1OC1Cc2ccccc2C1 [Compound 5, 1-(3,5-Dichloro-pyridin-4-methyl)5-(indan-2-yloxy)-6-methoxy-2H-phthalazine] | – | 80 | 33 | 29.5 ± 4 | – | 252 ± 120 | – | – | –
13 | COc1ccc2c(Cc3c(Cl)cncc3Cl)nncc2c1OCCCCCc1ccccc1 [Compound 6, 1-(3,5-Dichloro-pyridin-4-methyl)-5-(5-phenyl-pentyl-1-oxy)-6-methoxy-phthalazine] | 20 | 79 | 27 | 56.8 ± 9 | 25 | 83.5 ± 24 | – | – | –
14 | COc1cc2cnnc(Cc3c(Cl)cncc3Cl)c2cc1OC1CCCC1 [Compound 7, 7-Cyclopentyloxy-1-(3,5-dichloropyridin-4-ylmethyl)-6-methoxy-phthalazine] | – | – | – | 186 ± 43 | – | – | – | – | –
15 | COc1cc2c(C)nnc(Cc3c(Cl)cncc3Cl)c2cc1OC1CCCC1 [Compound 9, 7-Cyclopentyloxy-1-(3,5-dichloro-pyridin-4-ylmethyl)-4-methyl-6-methoxy-phthalazine] | – | – | – | 146 ± 38 | – | – | – | – | –
